Paper PMC5458547, “Discovery of first-in-class reversible dual small molecule inhibitors against G9a and DNMTs in hematological malignancies” (Nature Communications, 2017)
pIC50: −log10 of the molar value.

Legend:
GLP = molecular target: T1, GLP (Homo sapiens, UniProt Q9H9B1); test: Radioligand binding assay (3H-SAM), Reaction Biology; assay type: biochemical
T1 construct: purchased BPS Bioscience (contract panel)
T1 sequence (Q9H9B1 1-1298): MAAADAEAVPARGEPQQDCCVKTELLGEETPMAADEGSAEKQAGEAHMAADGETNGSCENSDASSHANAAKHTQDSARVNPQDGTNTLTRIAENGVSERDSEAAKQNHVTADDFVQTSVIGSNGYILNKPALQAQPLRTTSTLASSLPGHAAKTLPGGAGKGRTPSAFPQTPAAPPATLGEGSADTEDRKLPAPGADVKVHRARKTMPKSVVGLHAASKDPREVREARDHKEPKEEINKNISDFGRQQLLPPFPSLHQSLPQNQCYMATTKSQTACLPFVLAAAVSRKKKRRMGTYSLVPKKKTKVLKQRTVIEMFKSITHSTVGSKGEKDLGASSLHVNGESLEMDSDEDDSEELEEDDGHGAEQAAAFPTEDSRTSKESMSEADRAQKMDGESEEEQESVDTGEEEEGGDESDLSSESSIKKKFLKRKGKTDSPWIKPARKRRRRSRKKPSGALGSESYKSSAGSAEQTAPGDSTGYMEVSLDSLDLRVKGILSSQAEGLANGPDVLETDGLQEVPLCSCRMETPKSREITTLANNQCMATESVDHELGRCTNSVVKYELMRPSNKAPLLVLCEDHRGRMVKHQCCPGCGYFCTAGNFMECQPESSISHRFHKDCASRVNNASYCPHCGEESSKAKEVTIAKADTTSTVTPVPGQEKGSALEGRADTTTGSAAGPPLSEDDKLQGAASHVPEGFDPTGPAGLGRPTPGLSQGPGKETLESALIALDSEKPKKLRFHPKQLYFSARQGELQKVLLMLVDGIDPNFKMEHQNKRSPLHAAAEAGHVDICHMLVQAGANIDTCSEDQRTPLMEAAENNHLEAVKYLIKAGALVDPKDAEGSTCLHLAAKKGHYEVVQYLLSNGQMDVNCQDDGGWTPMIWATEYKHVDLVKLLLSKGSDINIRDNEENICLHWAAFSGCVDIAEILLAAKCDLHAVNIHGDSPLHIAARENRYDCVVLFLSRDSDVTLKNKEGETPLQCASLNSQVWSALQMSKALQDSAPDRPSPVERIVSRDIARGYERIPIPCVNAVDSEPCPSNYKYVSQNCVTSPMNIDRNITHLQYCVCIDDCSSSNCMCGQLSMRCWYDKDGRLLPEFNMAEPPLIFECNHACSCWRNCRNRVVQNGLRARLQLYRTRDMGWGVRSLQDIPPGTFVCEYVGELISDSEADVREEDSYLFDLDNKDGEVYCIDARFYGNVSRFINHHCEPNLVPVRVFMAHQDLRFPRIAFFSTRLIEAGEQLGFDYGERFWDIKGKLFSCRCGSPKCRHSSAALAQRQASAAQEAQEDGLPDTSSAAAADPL
Experimental: The radioligand binding assay against G9a, DNMT1 and GLP was performed by Reaction Biology Corporation (http://www.reactionbiology.com).

BRDT(BD1) = molecular target: T2, BRDT(BD1) (Homo sapiens, UniProt Q58F21); test: Epigenetics selectivity panel (BPS Bioscience); assay type: binding
T2 construct: purchased DiscoverX KINOMEscan (kinases); BPS Bioscience (epigenetic targets)

CREBBP = molecular target: T3, CREBBP (Homo sapiens, UniProt Q92793); test: Epigenetics selectivity panel (BPS Bioscience); assay type: binding
T3 construct: purchased DiscoverX KINOMEscan (kinases); BPS Bioscience (epigenetic targets)

TAF1 = molecular target: T4, TAF1 (Homo sapiens, UniProt P21675); test: Epigenetics selectivity panel (BPS Bioscience); assay type: binding
T4 construct: purchased DiscoverX KINOMEscan (kinases); BPS Bioscience (epigenetic targets)

JMJD2B = molecular target: T5, JMJD2B (Homo sapiens, UniProt O94953); test: Epigenetics selectivity panel (BPS Bioscience); assay type: biochemical
T5 construct: purchased DiscoverX KINOMEscan (kinases); BPS Bioscience (epigenetic targets)

cytochrome P450 2C19 = molecular target: T6, cytochrome P450 2C19 (Homo sapiens, UniProt P33261); assay type: in vitro ADME; conditions: microsomes, 10 min, 10 µM
T6 construct: tissue BD Gentest; host or cells: human liver microsomes
Experimental: (§1) Details are provided in Supplementary Information. […]
(§2) 3A4) was evaluated in human liver microsomes at Wuxi (http://www.wuxi.com/). Test compounds (10 µM) and the corresponding substrates for each P450 isoform (20 µL) were incubated with 140 µL liver […]
(§3) reaction was terminated by adding 400 µL cold stop solution (200 ng/mL tolbutamide in ACN) and samples were centrifuged at 4000 rpm for 20 minutes. Supernatants were analyzed by LC-MS/MS (Shimadzu LC 20-AD - API 4000), using peak area ratio of analyte/internal standard. Test compounds and positive controls were tested in duplicates. The percentage of inhibition was calculated as the ratio of substrate metabolite detected in treated and non-treated wells. […]

cytochrome P450 2C9 = molecular target: T7, cytochrome P450 2C9 (Homo sapiens, UniProt P11712); assay type: in vitro ADME; conditions: microsomes, 10 min, 10 µM
T7 construct: tissue BD Gentest; host or cells: human liver microsomes
Experimental: as §1, §2, §3

cytochrome P450 2D6 = molecular target: T8, cytochrome P450 2D6 (Homo sapiens, UniProt P10635); assay type: in vitro ADME; conditions: microsomes, 10 min, 10 µM
T8 construct: tissue BD Gentest; host or cells: human liver microsomes
Experimental: as §1, §2, §3

cytochrome P450 3A4 = molecular target: T9, cytochrome P450 3A4 (Homo sapiens, UniProt P08684); assay type: in vitro ADME; conditions: microsomes, 10 min, 10 µM
T9 construct: tissue BD Gentest; host or cells: human liver microsomes
Experimental: as §1, §2, §3

PAMPA permeability = assay type: in vitro ADME; conditions: pH 7.4
[1] = Liver microsomal stability; assay type: in vitro ADME; conditions: human, human liver microsomes; read-out: Liver Microsomal Stability. Estimation T1/2
NALM-20 = test: Cell proliferation assay (MTS); assay type: cell-based; conditions: Homo sapiens; ALL, 48 h
KG-1 = test: Cell proliferation assay (MTS); assay type: cell-based; conditions: Homo sapiens, AML, 48 h
MOLM-13 = test: Cell proliferation assay (MTS); assay type: cell-based; conditions: Homo sapiens, AML, 48 h
OPM2 = test: Cell proliferation assay (MTS); assay type: cell-based; conditions: Homo sapiens, OPM-2; MM
MGH-U3 = test: Cell proliferation assay (MTS); assay type: cell-based; conditions: Homo sapiens; Bladder
U87-MG = test: Cell proliferation assay (MTS); assay type: cell-based; conditions: Homo sapiens, U-87 MG; Glioblastoma
SK-MEL-28 = test: Cell proliferation assay (MTS); assay type: cell-based; conditions: Homo sapiens, Melanoma
UACC-62 = test: Cell proliferation assay (MTS); assay type: cell-based; conditions: Homo sapiens, Melanoma
CAKI-2 = test: Cell proliferation assay (MTS); assay type: cell-based; conditions: Homo sapiens, Renal
A549 = test: Cell proliferation assay (MTS); assay type: cell-based; conditions: Homo sapiens, NSCLC
H460 = test: Cell proliferation assay (MTS); assay type: cell-based; conditions: Homo sapiens, NCI-H460; NSCLC

T9 sequence (P08684 whole entry): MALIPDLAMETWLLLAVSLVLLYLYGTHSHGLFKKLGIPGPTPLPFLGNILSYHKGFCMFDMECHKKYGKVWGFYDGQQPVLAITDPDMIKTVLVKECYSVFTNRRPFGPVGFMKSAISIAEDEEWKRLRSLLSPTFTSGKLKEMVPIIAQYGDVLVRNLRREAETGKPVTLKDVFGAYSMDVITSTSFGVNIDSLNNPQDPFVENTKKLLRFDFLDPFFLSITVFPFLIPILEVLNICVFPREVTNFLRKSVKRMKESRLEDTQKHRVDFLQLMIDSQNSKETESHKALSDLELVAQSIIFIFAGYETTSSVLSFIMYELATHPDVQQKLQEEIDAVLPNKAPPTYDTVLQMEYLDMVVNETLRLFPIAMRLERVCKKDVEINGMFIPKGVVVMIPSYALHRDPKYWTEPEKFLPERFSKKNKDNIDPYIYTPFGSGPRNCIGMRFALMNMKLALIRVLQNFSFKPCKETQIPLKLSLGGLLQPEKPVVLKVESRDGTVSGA
T3 sequence (Q92793 whole entry): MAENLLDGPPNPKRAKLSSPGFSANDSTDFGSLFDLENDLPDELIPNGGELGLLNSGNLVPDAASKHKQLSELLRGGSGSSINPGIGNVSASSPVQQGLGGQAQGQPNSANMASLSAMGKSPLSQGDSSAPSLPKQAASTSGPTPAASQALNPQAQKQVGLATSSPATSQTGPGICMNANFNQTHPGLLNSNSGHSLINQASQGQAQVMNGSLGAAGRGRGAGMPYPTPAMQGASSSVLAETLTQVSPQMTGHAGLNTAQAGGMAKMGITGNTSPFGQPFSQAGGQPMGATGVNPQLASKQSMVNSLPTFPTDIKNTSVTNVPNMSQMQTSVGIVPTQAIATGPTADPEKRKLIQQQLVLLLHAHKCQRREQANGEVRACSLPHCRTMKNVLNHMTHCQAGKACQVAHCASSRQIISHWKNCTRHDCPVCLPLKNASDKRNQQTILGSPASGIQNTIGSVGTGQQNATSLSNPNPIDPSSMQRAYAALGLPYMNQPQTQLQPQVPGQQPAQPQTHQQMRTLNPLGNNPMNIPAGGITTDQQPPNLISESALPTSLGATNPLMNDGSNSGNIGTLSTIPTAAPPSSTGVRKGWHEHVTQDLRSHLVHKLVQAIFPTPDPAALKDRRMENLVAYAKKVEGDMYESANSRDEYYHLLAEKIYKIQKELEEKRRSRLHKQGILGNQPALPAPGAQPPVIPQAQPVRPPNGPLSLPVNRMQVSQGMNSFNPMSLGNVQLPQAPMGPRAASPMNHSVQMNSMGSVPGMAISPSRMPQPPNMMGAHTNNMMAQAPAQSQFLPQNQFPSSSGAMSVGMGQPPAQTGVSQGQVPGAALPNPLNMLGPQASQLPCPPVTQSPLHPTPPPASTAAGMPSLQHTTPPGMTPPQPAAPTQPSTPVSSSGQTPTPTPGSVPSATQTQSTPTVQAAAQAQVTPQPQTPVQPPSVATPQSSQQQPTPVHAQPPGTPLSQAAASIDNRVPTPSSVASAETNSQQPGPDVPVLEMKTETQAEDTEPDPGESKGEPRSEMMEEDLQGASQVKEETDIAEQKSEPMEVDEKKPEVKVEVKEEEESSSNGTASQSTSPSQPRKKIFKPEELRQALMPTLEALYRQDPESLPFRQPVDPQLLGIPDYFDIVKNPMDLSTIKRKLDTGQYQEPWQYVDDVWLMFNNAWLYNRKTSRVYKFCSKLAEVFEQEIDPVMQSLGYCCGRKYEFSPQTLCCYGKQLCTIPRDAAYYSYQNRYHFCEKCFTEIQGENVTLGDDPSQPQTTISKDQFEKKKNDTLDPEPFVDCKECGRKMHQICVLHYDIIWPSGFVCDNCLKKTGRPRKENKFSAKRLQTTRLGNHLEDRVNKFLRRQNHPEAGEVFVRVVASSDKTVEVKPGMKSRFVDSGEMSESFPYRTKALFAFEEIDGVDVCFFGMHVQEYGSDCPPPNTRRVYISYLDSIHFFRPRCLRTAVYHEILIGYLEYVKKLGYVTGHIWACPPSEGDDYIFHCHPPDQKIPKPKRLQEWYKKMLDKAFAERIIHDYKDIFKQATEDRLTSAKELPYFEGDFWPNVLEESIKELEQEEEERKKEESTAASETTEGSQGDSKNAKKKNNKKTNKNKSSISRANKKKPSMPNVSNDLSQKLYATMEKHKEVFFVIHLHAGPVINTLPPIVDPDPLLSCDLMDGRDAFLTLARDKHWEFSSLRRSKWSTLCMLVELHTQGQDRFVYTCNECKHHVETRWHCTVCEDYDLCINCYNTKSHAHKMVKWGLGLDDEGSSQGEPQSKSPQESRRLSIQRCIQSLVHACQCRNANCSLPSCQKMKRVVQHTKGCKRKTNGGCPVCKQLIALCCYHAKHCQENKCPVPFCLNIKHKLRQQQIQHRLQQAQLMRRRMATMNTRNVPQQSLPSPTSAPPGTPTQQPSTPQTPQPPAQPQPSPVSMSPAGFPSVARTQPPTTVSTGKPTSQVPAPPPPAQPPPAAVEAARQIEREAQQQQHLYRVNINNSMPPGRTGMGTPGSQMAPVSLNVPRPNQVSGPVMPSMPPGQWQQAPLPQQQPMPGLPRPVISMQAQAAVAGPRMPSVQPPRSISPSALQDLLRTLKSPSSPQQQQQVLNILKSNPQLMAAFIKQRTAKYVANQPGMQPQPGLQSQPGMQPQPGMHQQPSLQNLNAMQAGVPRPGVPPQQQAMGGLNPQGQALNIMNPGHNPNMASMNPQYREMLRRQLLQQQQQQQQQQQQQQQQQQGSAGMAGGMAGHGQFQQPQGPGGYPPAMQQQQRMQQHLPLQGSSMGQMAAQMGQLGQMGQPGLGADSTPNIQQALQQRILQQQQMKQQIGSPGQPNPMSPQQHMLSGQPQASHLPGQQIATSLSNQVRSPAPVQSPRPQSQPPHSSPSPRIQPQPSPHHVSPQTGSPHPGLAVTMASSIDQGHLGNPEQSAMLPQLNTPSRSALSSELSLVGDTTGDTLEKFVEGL
T4 sequence (P21675 whole entry): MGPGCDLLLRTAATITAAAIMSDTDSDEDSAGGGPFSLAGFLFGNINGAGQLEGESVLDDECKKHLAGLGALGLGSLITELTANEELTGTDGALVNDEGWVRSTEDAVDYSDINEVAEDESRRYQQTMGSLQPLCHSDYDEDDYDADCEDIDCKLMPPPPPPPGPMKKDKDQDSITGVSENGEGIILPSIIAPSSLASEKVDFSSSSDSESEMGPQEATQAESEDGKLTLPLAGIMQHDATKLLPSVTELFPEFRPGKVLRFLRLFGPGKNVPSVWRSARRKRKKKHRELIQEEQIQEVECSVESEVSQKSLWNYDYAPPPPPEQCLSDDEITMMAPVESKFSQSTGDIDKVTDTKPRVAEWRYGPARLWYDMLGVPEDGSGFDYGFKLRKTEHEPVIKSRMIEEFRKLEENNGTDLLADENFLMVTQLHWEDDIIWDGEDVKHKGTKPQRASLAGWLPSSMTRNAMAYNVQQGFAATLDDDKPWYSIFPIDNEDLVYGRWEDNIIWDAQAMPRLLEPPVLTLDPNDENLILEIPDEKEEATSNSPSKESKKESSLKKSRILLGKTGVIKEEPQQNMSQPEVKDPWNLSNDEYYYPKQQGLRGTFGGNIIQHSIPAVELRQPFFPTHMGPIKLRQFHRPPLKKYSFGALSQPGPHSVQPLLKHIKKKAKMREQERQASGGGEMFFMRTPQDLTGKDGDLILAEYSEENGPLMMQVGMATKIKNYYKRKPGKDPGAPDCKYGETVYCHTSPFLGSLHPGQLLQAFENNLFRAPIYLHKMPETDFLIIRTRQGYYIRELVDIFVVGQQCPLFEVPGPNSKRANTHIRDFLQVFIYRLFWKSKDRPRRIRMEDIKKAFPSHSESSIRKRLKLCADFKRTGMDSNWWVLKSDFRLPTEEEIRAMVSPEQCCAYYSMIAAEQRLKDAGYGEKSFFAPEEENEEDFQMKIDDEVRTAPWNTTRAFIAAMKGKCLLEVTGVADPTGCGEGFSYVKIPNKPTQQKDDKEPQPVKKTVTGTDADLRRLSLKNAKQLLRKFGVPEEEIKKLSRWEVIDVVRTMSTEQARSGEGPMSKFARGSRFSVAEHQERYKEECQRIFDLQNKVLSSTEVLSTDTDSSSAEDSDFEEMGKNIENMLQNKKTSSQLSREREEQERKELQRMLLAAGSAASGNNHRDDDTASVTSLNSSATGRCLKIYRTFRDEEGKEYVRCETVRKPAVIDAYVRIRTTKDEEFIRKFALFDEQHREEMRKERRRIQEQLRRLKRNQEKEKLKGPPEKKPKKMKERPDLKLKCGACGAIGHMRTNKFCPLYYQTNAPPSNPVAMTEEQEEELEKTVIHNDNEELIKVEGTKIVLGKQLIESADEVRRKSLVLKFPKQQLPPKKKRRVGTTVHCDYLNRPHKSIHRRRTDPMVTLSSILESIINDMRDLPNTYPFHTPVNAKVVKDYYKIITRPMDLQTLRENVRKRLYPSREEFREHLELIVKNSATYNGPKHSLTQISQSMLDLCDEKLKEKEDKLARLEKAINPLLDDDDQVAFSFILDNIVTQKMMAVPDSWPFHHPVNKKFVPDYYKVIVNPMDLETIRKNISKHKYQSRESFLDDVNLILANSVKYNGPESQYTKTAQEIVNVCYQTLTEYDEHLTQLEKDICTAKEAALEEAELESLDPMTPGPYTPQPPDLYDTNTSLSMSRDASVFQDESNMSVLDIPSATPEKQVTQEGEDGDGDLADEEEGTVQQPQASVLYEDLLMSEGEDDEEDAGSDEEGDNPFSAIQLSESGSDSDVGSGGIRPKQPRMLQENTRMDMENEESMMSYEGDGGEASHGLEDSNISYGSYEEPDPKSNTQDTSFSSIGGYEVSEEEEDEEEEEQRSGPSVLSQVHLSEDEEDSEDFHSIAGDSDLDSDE

SMILES | pIC50 (GLP) | inhibition at 10 µM (BRDT(BD1)) | inhibition at 10 µM (CREBBP) | inhibition at 10 µM (TAF1) | inhibition at 10 µM (JMJD2B) | P450s Inhibition: 2C19 (cytochrome P450 2C19) | P450s Inhibition: 2C9 (cytochrome P450 2C9) | P450s Inhibition: 2D6 (cytochrome P450 2D6) | P450s Inhibition: 3A4 (cytochrome P450 3A4) | PAMPA (Pe) (PAMPA permeability) | half-life at 1 µM [1] | GI50 (NALM-20) | GI50 (KG-1) | GI50 (MOLM-13) | GI50 (OPM2) | GI50 (MGH-U3) | GI50 (U87-MG) | GI50 (SK-MEL-28) | GI50 (UACC-62) | GI50 (CAKI-2) | also measured
COc1cc2c(NC3CCN(C)CC3)cc(-c3ccc(C)o3)nc2cc1OCCCN1CCCC1 [CM-272, 6-methoxy-2-(5-methyl-2-furyl)-N-(1-methyl-4-piperidyl)-7-(3-pyrrolidin-1-ylpropoxy)quinolin-4-amine] | 8.15 | 8% | 5% | 0% | 2% | < 10% | < 10% | < 10% | < 10% | 0.16 10-6 in nm/s | > 145 min | > 5 µM | 3.54 µM | 604 nM | 2610 nM | 456 nM | 294 nM | 874 nM | 780 nM | 2920 nM | GI50 (A549): 937 nM; GI50 (H460): 1480 nM
COc1cc2c(NCC3CCN(C)CC3)cc(-c3ccc(C)o3)nc2cc1OCCCN1CCCC1 [CM-579, 6-methoxy-2-(5-methyl-2-furyl)-N-[(1-methyl-4-piperidyl)methyl]-7-(3-pyrrolidin-1-ylpropoxy)quinolin-4-amine] | 7.17 | 0% | 0% | 4% | 40% | < 10% | < 10% | < 10% | < 10% | 0.01 10-6 in nm/s | 88.8 min | > 10 µM | > 10 µM | 1020 nM | > 5000 nM | 141 nM | 118 nM | 1390 nM | 150 nM | 304 nM | GI50 (A549): 122 nM; GI50 (H460): 4110 nM
